Measured values from PubChem BioAssay AID1259407 (Chemical Carcinogenesis Research Information System (CCRIS), 2018).
Active and inactive are the calls of the source. How the calls were made is not given here.

Test system: CCRIS mutagenicity, Ames/micronucleus/aberration tests
Experiment: CCRIS mutagenicity studies
[1] = Test System: AMES SALMONELLA TYPHIMURIUM, Strain/Indicator: TA98, Metabolic Activation: NONE, Method: STANDARD PLATE
[2] = Test System: AMES SALMONELLA TYPHIMURIUM, Strain/Indicator: TA100, Metabolic Activation: NONE, Method: STANDARD PLATE
[3] = Test System: MOUSE LYMPHOMA, Strain/Indicator: L5178Y (TK+/TK-), Metabolic Activation: NONE, Method: SUSPENSION/PLATE
[4] = Test System: AMES SALMONELLA TYPHIMURIUM, Strain/Indicator: TA100, Metabolic Activation: RAT, LIVER, S-9, AROCLOR 1254, Method: STANDARD PLATE

In the case of `C[Si]1(C)O[Si](C)(C)O[Si](C)(C)O1`, the mutagenic call [1] was “inactive; negative”, the mutagenic call (Test System: AMES SALMONELLA TYPHIMURIUM, Strain/Indicator: TA98, Metabolic Activation: RAT LIVER S-9, AROCLOR 1254, Method: STANDARD PLATE) was “inactive; negative” and the mutagenic call [2] was “inactive; negative”. For the same molecule, the mutagenic call (Test System: AMES SALMONELLA TYPHIMURIUM, Strain/Indicator: TA100, Metabolic Activation: RAT LIVER S-9, AROCLOR 1254, Method: STANDARD PLATE) was “inactive; negative”, the mutagenic call (Test System: AMES SALMONELLA TYPHIMURIUM, Strain/Indicator: TA1535, Metabolic Activation: NONE, Method: STANDARD PLATE) was “inactive; negative” and the mutagenic call (Test System: AMES SALMONELLA TYPHIMURIUM, Strain/Indicator: TA1535, Metabolic Activation: RAT LIVER S-9, AROCLOR 1254, Method: STANDARD PLATE) was “inactive; negative”. For the same molecule, the mutagenic call (Test System: AMES SALMONELLA TYPHIMURIUM, Strain/Indicator: TA1537, Metabolic Activation: NONE, Method: STANDARD PLATE) was “inactive; negative”, the mutagenic call (Test System: AMES SALMONELLA TYPHIMURIUM, Strain/Indicator: TA1537, Metabolic Activation: RAT LIVER S-9, AROCLOR 1254, Method: STANDARD PLATE) was “inactive; negative” and the mutagenic call (Test System: AMES SALMONELLA TYPHIMURIUM, Strain/Indicator: TA1538, Metabolic Activation: NONE, Method: STANDARD PLATE) was “inactive; negative”. For the same molecule, the mutagenic call (Test System: AMES SALMONELLA TYPHIMURIUM, Strain/Indicator: TA1538, Metabolic Activation: RAT LIVER S-9, AROCLOR 1254, Method: STANDARD PLATE) was “inactive; negative”, the mutagenic call (Test System: E. COLI, Strain/Indicator: P3078 POLA, Metabolic Activation: NONE, Method: SPOT TEST) was “inactive; negative” and the mutagenic call (Test System: E. COLI, Strain/Indicator: P3078 POLA, Metabolic Activation: RAT LIVER S-9, AROCLOR 1254, Method: SPOT TEST) was “inactive; negative”. For the same molecule, the mutagenic call (Test System: E. COLI, Strain/Indicator: W3110, Metabolic Activation: NONE, Method: SPOT TEST) was “inactive; negative”, the mutagenic call (Test System: E. COLI, Strain/Indicator: W3110, Metabolic Activation: RAT LIVER S-9, AROCLOR 1254, Method: SPOT TEST) was “inactive; negative” and the mutagenic call [3] was “inactive; negative”. For the same molecule, the mutagenic call (Test System: MOUSE LYMPHOMA, Strain/Indicator: L5178Y (TK+/TK-), Metabolic Activation: RAT, LIVER, S-9, Method: SUSPENSION/PLATE) was “inactive; negative”.

For `Cl.Cl.[Cr].c1ccc(-c2ccccn2)nc1.c1ccc(-c2ccccn2)nc1`, the mutagenic call [2] was “active; positive”.

`Cc1ccc2c(=O)c3cccc4ccc1c2c43` was tested, and the mutagenic call [4] was “active; positive”.

For `C=CCCCCCCCCCCCC`, the mutagenic call [1] was “inactive; negative”, the mutagenic call (Test System: AMES SALMONELLA TYPHIMURIUM, Strain/Indicator: TA98, Metabolic Activation: RAT, LIVER, S-9, AROCLOR, Method: STANDARD PLATE) was “inactive; negative” and the mutagenic call [2] was “inactive; negative”. The mutagenic call (Test System: AMES SALMONELLA TYPHIMURIUM, Strain/Indicator: TA100, Metabolic Activation: RAT, LIVER, S-9, AROCLOR, Method: STANDARD PLATE) was “inactive; negative”, the mutagenic call (Test System: AMES SALMONELLA TYPHIMURIUM, Strain/Indicator: UTH8413, Metabolic Activation: NONE, Method: STANDARD PLATE) was “inactive; negative” and the mutagenic call (Test System: AMES SALMONELLA TYPHIMURIUM, Strain/Indicator: UTH8413, Metabolic Activation: RAT, LIVER, S-9, AROCLOR, Method: STANDARD PLATE) was “inactive; negative”. For the same molecule, the mutagenic call (Test System: AMES SALMONELLA TYPHIMURIUM, Strain/Indicator: UTH8414, Metabolic Activation: NONE, Method: STANDARD PLATE) was “inactive; negative” and the mutagenic call (Test System: AMES SALMONELLA TYPHIMURIUM, Strain/Indicator: UTH8414, Metabolic Activation: RAT, LIVER, S-9, AROCLOR, Method: STANDARD PLATE) was “inactive; negative”.

For `Cc1cc(N)sn1`, the mutagenic call (Test System: AMES SALMONELLA TYPHIMURIUM, Strain/Indicator: TA102, Metabolic Activation: RAT, LIVER, S-9, AROCLOR 1254, HAMSTER, LIVER, S-9, AROCLOR 1254, Method: PREINCUBATION) was “active; positive”, the mutagenic call (Test System: AMES SALMONELLA TYPHIMURIUM, Strain/Indicator: TA1538, Metabolic Activation: HAMSTER, LIVER, S-9, AROCLOR 1254 (5, 10%), Method: STANDARD PLATE) was “active; positive” and the mutagenic call (Test System: AMES SALMONELLA TYPHIMURIUM, Strain/Indicator: TA1538, Metabolic Activation: HAMSTER, LIVER, S-9, AROCLOR 1254, Method: STANDARD PLATE) was “active; positive”. The mutagenic call [3] was “active; positive. reevaluation of results: inconclusive” and the mutagenic call (Test System: MOUSE LYMPHOMA, Strain/Indicator: L5178Y (TK+/TK-), Metabolic Activation: RAT, LIVER, S-9, AROCLOR 1254, Method: SUSPENSION/PLATE) was “active; positive. reevaluation of results: equivocal”.

For `Cc1c2ccccc2c(C)c2ccccc12`, the mutagenic call [1] was “active; positive”, the mutagenic call (Test System: AMES SALMONELLA TYPHIMURIUM, Strain/Indicator: TA98, Metabolic Activation: RAT, LIVER, S-9, AROCLOR 1254, Method: STANDARD PLATE) was “active; positive” and the mutagenic call [2] was “inactive; negative”. The mutagenic call [4] was “active; positive”.

In the case of `COC(=O)[C@@H]1[C@H]2C[C@H]3c4[nH]c5ccccc5c4CCN3C[C@@H]2CC[C@@H]1O`, the mutagenic call (Test System: Mouse lymphoma, Strain/Indicator: L5178Y (tk+/tk-), Metabolic Activation: None, Method: Suspension/plate) was “inactive; inconclusive (previous evaluation negative)” and the mutagenic call (Test System: Mouse lymphoma, Strain/Indicator: L5178Y (tk+/tk-), Metabolic Activation: Rat, Liver, S-9, Aroclor 1254, Method: Suspension/plate) was “inactive; inconclusive (previous evaluation negative)”.
